Experimental data reported in patent US7718676B2, “2-aminoaryloxazole compounds as tyrosine kinase inhibitors” (AB Science, priority 2003, dated 2010).

| SMILES | melting point |
| --- | --- |
| Cc1ccc(NC(=O)c2cccc(N(C)C)c2)cc1Nc1ncc(-c2cccnc2)o1 [Compound 010, 3-Dimethylamino-N-[4-methyl-3-(5-pyridin-3-yl-oxazol-2-ylamino)-phenyl]-benzamide] | 228 °C |
| Cc1ccc(C(=O)Nc2ccc(C#N)cc2)cc1Nc1ncc(-c2cccnc2)o1 [Compound 058, N-(4-Cyano-phenyl)-4-methyl-3-(5-pyridin-3-yl-oxazol-2-ylamino)-benzamide] | 203 °C |
